Test results: patent US8273758B2, “Substituted tricyclic derivatives” (Sanofi, priority 2008, dated 2012)

Key:
[1] = molecular target: GSK3β (Homo sapiens, UniProt P49841); assay: Inhibitory activity against GSK3β (33P-ATP phosphorylation of prephosphorylated GS1 peptide); assay type: biochemical; details: protocol 3: 7.5 μM GS1 peptide, 10 μM ATP, 50 mM Hepes pH 7.2, one hour, room temperature
Experimental: Four different protocols can be used.
In a first protocol: 7.5 μM of prephosphorylated GS1 peptide and 10 μM ATP (containing 300,000 cpm of ^33P-ATP) were incubated in 25 mM Tris-HCl, pH 7.5, 0.6 mM DTT, 6 mM MgCl2, 0.6 mM EGTA, 0.05 mg/ml BSA buffer for 1 hour at room temperature in the presence of GSK3beta (total reaction volume: 100 microliters).
In a second protocol: 4.1 μM of prephosphorylated GS1 peptide and 42 μM ATP (containing 260,000 cpm ^33P-ATP) were incubated in 80 mM Mes-NaOH, pH 6.5, 1 mM Mg acetate, 0.5 mM EGTA, 5 mM 2-mercaptoethanol, 0.02% Tween 20, 10% glycerol buffer for 2 hours at room temperature in the presence of GSK3beta.
In a third protocol: 7.5 μM of prephosphorylated GS1 peptide and 10 μM ATP (containing 300,000 cpm of ^33P-ATP) were incubated in 50 mM Hepes, pH 7.2, 1 mM DTT, 1 mM MgCl2, 1 mM EGTA, 0.01% Tween 20 buffer for one hour at room temperature in the presence of GSK3beta (total reaction volume: 100 microliters). […]
The reaction was stopped with 100 microliters of a solution made of 25 g polyphosphoric acid (85% P2O5), 126 ml 85% H3PO4, H2O to 500 ml and then diluted to 1:100 before use. […] Incorporated ^33P radioactivity was determined by liquid scintillation spectrometry. […]

Sequence of GSK3β (P49841 whole entry): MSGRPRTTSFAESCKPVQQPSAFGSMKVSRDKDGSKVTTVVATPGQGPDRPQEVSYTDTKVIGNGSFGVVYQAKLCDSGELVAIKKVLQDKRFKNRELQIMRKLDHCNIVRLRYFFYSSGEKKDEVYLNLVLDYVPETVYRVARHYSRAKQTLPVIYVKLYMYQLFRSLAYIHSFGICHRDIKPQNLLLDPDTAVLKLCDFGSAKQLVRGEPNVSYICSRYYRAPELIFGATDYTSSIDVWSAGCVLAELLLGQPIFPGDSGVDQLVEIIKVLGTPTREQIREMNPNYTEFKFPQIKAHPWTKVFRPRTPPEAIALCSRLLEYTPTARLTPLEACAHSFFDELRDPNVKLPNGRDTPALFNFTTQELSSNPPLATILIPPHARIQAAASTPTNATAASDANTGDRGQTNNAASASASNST

IC50 [1]: 6 nM | melting point: 263 to 265 °C
Structure (SMILES): O=C(CN1c2ccccc2Cn2c1nc(-c1ccncn1)cc2=O)c1ccccc1 [Compound No. 3, 9-(2-Oxo-2-phenyl-ethyl)-2-pyrimidin-4-yl-9,10-dihydro-1,4a,9-triaza-anthracen-4-one]
